Read-outs that look alike come from different tables or passages of the source.
Key:
dystrophin = details: mouse, in vivo
Murine DMD exon 23 = details: mouse, in vivo
creatine kinase = details: mouse, in vivo
Human CD33 exon 2 [1] = assay type: cell-based
[2] = test system: exon 5 of non-human primate CD33; test: CD33 exon 5 skipping (RT-PCR) in monkey PBMC after intravenous infusion; assay type: in vivo; details: NHP; IV infusion 2 mpk (d0) and 5 mpk (d3)
Method: NHP Study design. To explore the tolerability of EEV-PMO on non-human primate (NHP), two CPP-PMO constructs as well as PMO itself are dosed in staggered fashion at 2 mpk and 5 mpk through intravenous infusion on d0 and d3, respectively. […] The CPP used was CPP12, which has a cyclic amino acid sequence of FfΦRrRr. PBMCs (peripheral blood mononuclear cells) were isolated at 1 day (d4) and 7 days […] post 5 mpk injection to detect splicing correction. Blood, serum and urine samples were collected at 1 day and or 7 days post each injection for hematology, clinical chemistry, coagulation, urinalysis, cytokine and histamine analysis.
Detection of exon exclusion by RT-PCR. Although human and non-human primates share high sequence homology of CD33 gene, the 5′-UTR and splicing pattern is different. The sequence coding for the IgV domain of CD33 is located in exon 2 for human and located in exon 5 for non-human primate CD33 gene. Therefore, the skipping of exon 2 in human CD33 (D2-CD33), resulting in ΔIgV-CD33 protein, corresponds to the skipping of exon 5 of non-human primate CD33. Monkey PBMC was collected at specified time points mentioned above. Total RNA was extracted, and RT-PCR was conducted using forward primer 5′-[…]-3′ and reverse primer 5′-[…]-3′ resulting in full length CD33 mRNA (FL-CD33) at 700 bp and Exon-5 skipped CD33 mRNA (D5-CD33) at 320 bp.

Human CD33 exon 2 [3] = details: U-87 MG glioblastoma cells; 48 hours; 10% FBS
From the text: Cells. Differentiated THP-1 cells (human monocyte cells) and glioblastoma cells (human neuronal cells) were used in this study.
Targeting CD33 expression represents a treatment strategy for AD and cancer. Skipping of exon 2 of the gene expressing CD33 produces D2-CD33, a CD33 isoform that lacks a binding domain of sialic acid. In the absence of such a ligand binding domain, CD33 cannot inhibit microglial activation and phagocytosis of amyloid beta by microglial cells. Such a result is protective against AD.

CD33 = CD33 production by flow cytometry in THP1 cells; assay type: cell-based, human
From the text: Such a result is protective against AD.
Detection of exon 2 skipping by RT-PCR and flow cytometry.

Question: Which “cells positive for dystrophin in cardiac tissue” value (dystrophin) does the source give for “5′-GGCCAAACCTCGGCTTACCTGAAAT-3′ (all PMO monomers) [ENTR-0013]” here?
Answer: Its value is ≤ 5%.

Question: What about the “mRNA correction and dystrophin protein expression in the heart” value (Murine DMD exon 23) of the same substance?
Answer: Its value is “not in 20 mg/kg PMO treated MDX mice”.

Question: “5′-GGCCAAACCTCGGCTTACCTGAAAT-3′-C3NH-PEG4-BCN+Ac-NLS-Lys(CPP12)-PEG12-K(N3) (all PMO monomers) [ENTR-0165]” was tested. Which “expression of dystrophin protein levels (Western Blot)” value (dystrophin) did it give?
Answer: Its value is “significantly corrected the expression of dystrophin protein levels”.

Question: What about the “exon 23 skipping in Quad” value (Murine DMD exon 23; iv, 20 mg/kg) of the same substance?
Answer: Its value is 38.5±2.5%.

Question: And the “exon 23 skipping in diaphragm” value (Murine DMD exon 23; iv, 20 mg/kg)?
Answer: Its value is 30.2±2.8%.

Question: What about the “exon 23 skipping in heart” value (Murine DMD exon 23; iv, 20 mg/kg) of the same substance?
Answer: The value was 30.5±17.0%.

Question: “5′-GGCCAAACCTCGGCTTACCTGAAAT-3′-C3NH-PEG4-BCN+Lys(N3)-miniPEG-NLS-ss-bA-bA-CPP12 (all PMO monomers) [ENTR-0164]” was tested. Which “expression of dystrophin protein levels (Western Blot)” value (dystrophin) did it give?
Answer: The value was “significantly corrected the expression of dystrophin protein levels”.

Question: And the “exon 23 skipping in Quad” value (Murine DMD exon 23; iv, 20 mg/kg)?
Answer: The value was 59.5±2.2%.

Question: And the “exon 23 skipping in diaphragm” value (Murine DMD exon 23; iv, 20 mg/kg)?
Answer: Its value is 61.0±13.7%.

Question: What about the “exon 23 skipping in heart” value (Murine DMD exon 23; iv, 20 mg/kg) of the same substance?
Answer: Its value is 29.1±0.8%.

Question: What does the source list for “5′-GGCCAAACCTCGGCTTACCTGAAAT-3′-click-K-PEG12-Lys(CPP12)-NLS-Ac (all PMO monomers) [ENTR-0201]”?
Answer: splicing correction and dystrophin protein in comparison to 20 mpk PMO (dystrophin): higher amount of both splicing correction and dystrophin protein in all four muscle tissues; duration of restored dystrophin protein (Western Blot) (dystrophin; iv, 20 mg/kg): sustained up to four weeks; dystrophin immunohistochemistry, skeletal muscle fibers (dystrophin; iv, 20 mg/kg): all the skeletal muscle fibers immunostained positive for dystrophin protein; intensity of dystrophin expression in heart muscle tissue (immunohistochemistry) (dystrophin; iv, 20 mg/kg): reaching near normal levels; creatine kinase expression in comparison to control (creatine kinase): decrease in creatine kinase expression in comparison to control; serum creatine kinase level (creatine kinase): normalized the serum creatine kinase level; amount of splicing correction at 10 mg/kg versus 5 mg/kg (Murine DMD exon 23): higher amount of splicing correction than treatment with 5 mg/kg; exon skipping activity across muscle groups (Murine DMD exon 23): high exon skipping activity across all the muscle groups; mRNA correction and dystrophin protein expression in the heart (Murine DMD exon 23): only observed in 10 mpk ENTR-201 treated MDX mice; performance of CPP12 with Nuclear Localization Sequence versus CPP12 alone (Murine DMD exon 23): outperformed CPP12 alone significantly; splicing correction of dystrophin in the heart and diaphragm (Murine DMD exon 23): also resulted in splicing correction of dystrophin in the heart and in the diaphragm; splicing correction of dystrophin mRNA and dystrophin protein levels (Murine DMD exon 23; 10 mg/kg): significant splicing correction of dystrophin mRNA and dystrophin protein levels; splicing correction of dystrophin in the heart and diaphragm (Murine DMD exon 23; 20 mg/kg): resulted in splicing correction of dystrophin in the heart and in the diaphragm; duration of enhanced exon skipping efficiency (Murine DMD exon 23; iv, 20 mg/kg): significant enhancements in exon skipping efficiency up to four weeks; exon 23 skipping in Quad (Murine DMD exon 23; iv, 20 mg/kg): 73.5±8.4%; exon 23 skipping in diaphragm (Murine DMD exon 23; iv, 20 mg/kg): 79.0±6.8%; exon 23 skipping in heart (Murine DMD exon 23; iv, 20 mg/kg): 60.5±17.2%; splicing correction of dystrophin (Murine DMD exon 23; iv, 20 mg/kg): resulted in splicing correction of dystrophin

Question: Which “dose dependence of exon 2 skipping” value (Human CD33 exon 2 [1]) does the source give for “5′-GTAACTGTATTTGGTACTTCC-3′ (Ac-NLS-Lys(CPP12)-PEG12-K(N3)- (all PMO monomers) [EEV-PMO-CD33-5]” here?
Answer: The value was “dose-dependent skipping of exon 2 CD33”.

Question: What about the “improvement of exon 2 skipping compared to unconjugated PMO-CD33” value (Human CD33 exon 2 [1]) of the same substance?
Answer: Its value is “over 1000 fold”.

Question: What about the “improvement of exon 2 skipping over PMO-CD33 with Endoporter transfection” value (Human CD33 exon 2 [1]) of the same substance?
Answer: Its value is “over 2 fold”.

Question: What about the “skipping of exon 5 of CD33 gene in monkey PBMC” value [2] of the same substance?
Answer: The value was “resulted in skipping of exon 5 of CD33 gene”.

Question: And the “skipping of exon 2 CD33 (RT-PCR)” value (Human CD33 exon 2 [3])?
Answer: The value was “dose-dependent skipping of exon 2 CD33”.

Question: What does the source list for “5′-GTAACTGTATTTGGTACTTCC-3′ + CPP12-PEG12-K(CPP12)-PEG12-TFP (all PMO monomers) [EEV-PMO-CD33-4]”?
Answer: production of CD33 (flow cytometry) in comparison to untreated (NT) cells (CD33): reduced production of CD33; dose dependence of exon 2 skipping (Human CD33 exon 2 [1]): dependent on the dose; efficacy in inducing human CD33 exon 2 skipping (PMO sequence optimization) (Human CD33 exon 2 [1]): superior efficacy; potency of bivalent versus monovalent EEV-PMO-CD33 in inducing CD33 exon 2 skipping (Human CD33 exon 2 [1]): more potent than EEV-PMO-CD33-2; skipping of exon 2 of CD33 (RT-PCR) (Human CD33 exon 2 [1]): resulted in skipping of exon 2 and the production of D2-CD33

From patent US20240358845A1 (priority 2021, published 2024)
